Key:
[1] = target: T1, NIH/3T3 cells overexpressing FGFR3 V555M-TACC3 fusion protein (Homo sapiens, UniProt P22607, V555M, cells depend on it); test: NIH/3T3 FGFR3 V555M-TACC3 cell proliferation assay; format: cell-based; details: 72-hr incubation, CellTiter Glo; read-out: NIH/3T3 FGFR3 V555M-TACC3 CTG
T1 construct: NIH/3T3 FGFR3 V555M-TACC3 CTG; other: 72-hr incubation, CellTiter Glo; fused on or other part: C-terminal part of TACC3 (coiled-coil) fused behind the FGFR3 kinase domain; Q9Y6A5 (Transforming acidic coiled-coil-containing protein 3)
Procedure: NIH/3T3 FGFR3 V555M-TACC3 Cell Proliferation Assay
In day 1, 90 μL of cell suspension (NIH/3T3 cells overexpressing FGFR3 V555M-TACC3 fusion protein) (total 30,000 cells per well in growth medium (DMEM containing 1% Glutamax, 10% FBS and 1% Pen/Strep)) was seeded in a 96-well plate and then incubated overnight at 37° C. and 5% CO2. In day 2, 10 μL of growth medium containing 10-fold stock solution of testing compound was added into cell cultures (9 dose points with 4× serial dilution, starting with 10 μM, 0.1% DMSO final). After 72-hr incubation at 37° C. and 5% CO2, in day 5 a volume of 50 μL CellTiter Glo (CTG) reagent was added into cell-containing 96-well plate and the plate was incubated at room temperature for 10 minutes before RLUs (relative light unit) were measured on a microplate reader with luminescence detection module. The RLU value was normalized to survival % and concentration-response curve was plotted using Prism to calculate IC50 (M), pIC50 (−log IC50) and HillSlope value.

[2] = target: T2, human FGFR3 V555M enzyme (cytoplasmic domain carrying V555M mutation) (Homo sapiens, UniProt P22607, V555M); test: FGFR3 V555M mobility shift assay (enzymatic assay); format: biochemical; details: 30 μM ATP, 45 minutes at 30° C.; read-out: FGFR3 V555M Caliper
T2 construct: cytoplasmic domain carrying V555M mutation, from Cama Biosciences; purchased Cama Biosciences (so in the source)
Procedure: FGFR3 V555M Mobility Shift Assay (Enzymatic Assay)
In a final reaction volume of 25 μL, 0.04 ng/μL human FGFR3 V555M enzyme (cytoplasmic domain carrying V555M mutation, from Cama Biosciences) was incubated with 30 μM ATP, 1 μM FL-peptide 30 substrate and 250 nL of testing compound (1% DMSO final) in assay buffer (100 mM HEPES pH 7.4, 10 mM MgCl2, 0.003% Brij35, 1 mM DTT). After incubation for 45 minutes at 30° C. the reaction was stopped with 10 μL of 0.5M EDTA pH 8.0, and then 25 μL of reaction mixture was transferred to reading plate and measured on Caliper EZ reader II. The substrate-product conversion rate was used as raw data for normalization and concentration-response curve (10 dose points with 4× serial dilution, starting with 10 μM) was plotted using Prism to calculate IC50 (M), pIC50 (−log IC50) and HillSlope value.

[3] = tested on: NIH/3T3 cells overexpressing FGFR3 V555M-TACC3 fusion protein; test: NIH/3T3 FGFR3 V555M-TACC3 cellular phospho-ERK assay (in vitro PD assay); format: cell-based; details: Mus musculus, NIH3T3; 1-hr incubation, AlphaLISA p-ERK1/2; read-out: NIH/3T3 FGFR3 V555M-TACC3 pERK
Procedure: NIH/3T3 FGFR3 V555M-TACC3 Cellular Phospho-ERK Assay (In Vitro PD Assay)
50 μL of cell suspension (NIH/3T3 cells overexpressing FGFR3 V555M-TACC3 fusion protein) (total 10,000 cells per well in growth medium (DMEM containing 1% Glutamax, 10% FBS and 1% Pen/Strep)) was seeded in a 384-well plate. After overnight incubation at 37° C. and 5% CO2, 5.5 μL of growth medium containing 10× testing compound was added into cell cultures (10 dose points with 4× serial dilution, starting with 10 μM, 0.1% DMSO final). After 1-hr incubation at 37° C. and 5% CO2, the medium was depleted and AlphaLISA SureFire Ultra p-ERKI1/2 (Thr202/Tyr204) Assay Kit (from PerkinElmer) was applied for phospho-ERK level detection according to the kit instructions. The RFUs (relative fluorescence units were measured on EnVision microplate reader (ex. 680 nm, em. 615 nm) and concentration-response curve was plotted using Prism to calculate IC50 (M), pIC50 (−log IC50) and HillSlope value.

T1 sequence (P22607 whole entry V555M, the tested form may be a part): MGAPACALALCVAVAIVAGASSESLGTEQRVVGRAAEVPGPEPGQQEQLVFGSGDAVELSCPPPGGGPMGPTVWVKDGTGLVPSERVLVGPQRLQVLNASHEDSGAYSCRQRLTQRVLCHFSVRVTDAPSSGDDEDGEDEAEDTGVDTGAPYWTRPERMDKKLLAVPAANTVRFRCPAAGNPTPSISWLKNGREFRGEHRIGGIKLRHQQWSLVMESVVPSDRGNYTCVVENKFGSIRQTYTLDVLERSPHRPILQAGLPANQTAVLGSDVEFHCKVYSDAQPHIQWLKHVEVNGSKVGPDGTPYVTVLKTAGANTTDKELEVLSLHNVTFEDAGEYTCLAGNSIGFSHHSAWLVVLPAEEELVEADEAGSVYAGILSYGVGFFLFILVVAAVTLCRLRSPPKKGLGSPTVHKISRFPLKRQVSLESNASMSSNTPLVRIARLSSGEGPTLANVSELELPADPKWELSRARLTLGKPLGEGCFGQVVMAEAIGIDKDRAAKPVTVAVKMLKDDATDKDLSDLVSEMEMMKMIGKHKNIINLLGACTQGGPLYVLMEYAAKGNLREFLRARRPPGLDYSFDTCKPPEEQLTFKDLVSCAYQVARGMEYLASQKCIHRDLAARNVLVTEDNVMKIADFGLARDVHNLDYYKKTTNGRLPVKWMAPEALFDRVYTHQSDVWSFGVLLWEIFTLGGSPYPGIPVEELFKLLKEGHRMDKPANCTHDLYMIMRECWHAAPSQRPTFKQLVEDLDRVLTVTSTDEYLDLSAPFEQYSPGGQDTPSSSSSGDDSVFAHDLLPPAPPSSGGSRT
T2 sequence (P22607 397-806 V555M limits assumed): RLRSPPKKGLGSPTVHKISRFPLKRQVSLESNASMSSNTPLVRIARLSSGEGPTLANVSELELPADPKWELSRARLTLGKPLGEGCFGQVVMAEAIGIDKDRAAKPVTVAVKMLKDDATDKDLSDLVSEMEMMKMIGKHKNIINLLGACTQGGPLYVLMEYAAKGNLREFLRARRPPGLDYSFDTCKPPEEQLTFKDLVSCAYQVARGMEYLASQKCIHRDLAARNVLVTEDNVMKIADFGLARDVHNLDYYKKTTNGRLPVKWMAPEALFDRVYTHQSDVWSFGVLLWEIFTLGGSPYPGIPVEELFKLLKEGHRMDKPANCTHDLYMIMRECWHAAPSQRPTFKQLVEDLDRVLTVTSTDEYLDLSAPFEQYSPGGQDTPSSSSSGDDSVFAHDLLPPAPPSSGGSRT

- GI50 [1]: 1.24 nM
- IC50 [2]: 0.23 nM
SMILES: C[C@H](Nc1c(-c2nc3cnc(N4CCOCC4)cc3[nH]2)c(=O)[nH]c2ccsc12)c1ncccn1 [Compound 2, (S)-6-(6-Morpholino-1H-imidazo[4,5-c]pyridin-2-yl)-7-((1-(pyrimidin-2-yl)ethyl)amino)thieno[3,2-b]pyridin-5(4H)-one]
- IC50 [3]: 1.6 nM

From patent publication US12398155B2, “Thienopyridinone compounds” (Janssen Pharmaceutica NV, priority 2019, dated 2025)
